Like-named read-outs stand apart in the source and are kept apart here. Where no end group is shown, it is not given here.
Tests used:
BTK [1] = molecular target: T1, BTK (Homo sapiens, UniProt Q06187)
BTK [2] = molecular target: T1, BTK; assay: biochemical
[3] = 0.75 uM BTK, […] probe 3l, 15 min preincubation, 10 µM, inhibitor, BTK inhibition (%)
[4] = 0.75 uM BTK, […] probe 3l, 15 min preincubation; 10 µM; inhibitor
[5] = read-out: BTK inhibition (%), 0.75 uM BTK, […] probe 3l, 15 min preincubation

T1 sequence (Q06187 402-655 limits assumed): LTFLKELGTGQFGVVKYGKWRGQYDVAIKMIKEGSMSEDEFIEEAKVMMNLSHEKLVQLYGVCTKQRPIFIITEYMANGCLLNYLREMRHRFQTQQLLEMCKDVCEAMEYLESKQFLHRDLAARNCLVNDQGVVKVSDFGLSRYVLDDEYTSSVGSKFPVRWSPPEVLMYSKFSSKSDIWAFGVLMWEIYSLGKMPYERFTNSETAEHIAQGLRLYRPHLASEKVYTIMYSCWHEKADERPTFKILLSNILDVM

COC(=O)C1=CCCN(C)C1 [PCM-0003961]
BTK inhibition (%) (BTK [1]; 10 µM; inhibitor): -10.1%

CC(=O)Oc1ccccc1C(=O)O [PCM-0064532]
BTK inhibition (%) (BTK [1]; [3]): 7.6%

CN1CCC(c2c[nH]c3ccc(O)cc23)CC1 [PCM-0064588]
BTK inhibition (%) (BTK [1]; 10 µM; inhibitor): 16.3%

O=P1(N(CCCl)CCCl)NCCCO1 (stereo not shown) [PCM-0064707]
BTK inhibition (%) (BTK [1]; [4]): -19.3%

CN(C)C(=O)Oc1cccc([N+](C)(C)C)c1 [PCM-0064762]
BTK inhibition (%) (BTK [1]; [4]): -7.7%

Cc1cc2c(C(C)C)c(O)c(O)c(C=O)c2c(O)c1-c1c(C)cc2c(C(C)C)c(O)c(O)c(C=O)c2c1O [PCM-0064881]
BTK inhibition (%) (BTK [1]; [4]): 75.5%

COc1ccc(C(CN(C)C)C2(O)CCCCC2)cc1 (stereo not shown) [PCM-0065195]
BTK inhibition (%) (BTK [1]; [4]): 6.2%

C[N+](C)(C)CCCCCCCCCC[N+](C)(C)C [PCM-0065265]
BTK inhibition (%) (BTK [1]; [4]): 11.7%

Cn1c(CCCC(=O)O)nc2cc(N(CCCl)CCCl)ccc21 [PCM-0065281]
BTK inhibition (%) (BTK [1]; [4]): -3.9%

NC(=O)c1ncn([C@@H]2O[C@H](CO)[C@@H](O)[C@H]2O)n1 [PCM-0065438]
BTK inhibition (%) (BTK [1]; [4]): -11.7%

COc1ccc2c(c1)c(CC(=O)O)c(C)n2C(=O)c1ccc(Cl)cc1 [PCM-0065532]
BTK inhibition (%) (BTK [1]; [3]): 5.5%

CN(C)C(=O)Oc1ccc[n+](C)c1 [PCM-0065636]
BTK inhibition (%) (BTK [1]; [4]): -25.7%

Cc1cc(NS(=O)(=O)c2ccc(N)cc2)no1 [PCM-0085795]
BTK inhibition (%) (BTK [1]; [3]): -3.1%

Nc1ccc(S(=O)(=O)Nc2ncccn2)cc1 [PCM-0085802]
BTK inhibition (%) (BTK [1]; [3]): -14%

O=C1O[C@H]([C@@H](O)CO)C(O)=C1O [PCM-0085940]
BTK inhibition (%) (BTK [1]; [3]): 5.4%

Cc1c(O)c(=O)ccn1C [PCM-0085974]
BTK inhibition (%) (BTK [1]; [3]): -30.4%

CO[C@H]1/C=C/O[C@@]2(C)Oc3c(C)c(O)c4c(O)c(c(/C=N/N5CCN(C)CC5)c(O)c4c3C2=O)NC(=O)/C(C)=C\C=C\[C@H](C)[C@H](O)[C@@H](C)[C@@H](O)[C@@H](C)[C@H](OC(C)=O)[C@@H]1C [PCM-0086069]
BTK inhibition (%) (BTK [1]; [4]): 32.7%

CN1[C@@H]2CC[C@H]1CC(OC(=O)c1c[nH]c3ccccc13)C2 (stereo partly shown) [PCM-0086109]
BTK inhibition (%) (BTK [1]; [3]): -11.7%

Cc1cc(C(C#N)c2ccc(Cl)cc2)c(Cl)cc1NC(=O)c1cc(I)cc(I)c1O (stereo not shown) [PCM-0086145]
BTK inhibition (%) (BTK [1]; [4]): 20.2%

CCN(C)C(=O)Oc1cccc([C@H](C)N(C)C)c1 [PCM-0086345]
BTK inhibition (%) (BTK [1]; [4]): 1.6%

COc1cc(NS(=O)(=O)c2ccc(N)cc2)nc(OC)n1 [PCM-0086362]
BTK inhibition (%) (BTK [1]; [3]): -7.8%

CC(C(=O)O)c1cccc(Oc2ccccc2)c1 (stereo not shown) [PCM-0086452]
BTK inhibition (%) (BTK [1]; [3]): -45.1%

Cc1cc(C)nc(NS(=O)(=O)c2ccc(N)cc2)n1 [PCM-0086513]
BTK inhibition (%) (BTK [1]; [3]): -23.3%

CN1[C@@H]2CC(OC(=O)[C@H](CO)c3ccccc3)C[C@H]1[C@@H]1O[C@@H]12 (stereo partly shown) [PCM-0086586]
BTK inhibition (%) (BTK [1]; [4]): -3.1%

COc1ccc2c(c1)[nH]c1c(C)nccc12 [PCM-0088555]
BTK inhibition (%) (BTK [1]; [4]): -17.1%

COC(=O)C1=C(C)NC(C)=C(C(=O)OCCN2CCN(C(c3ccccc3)c3ccccc3)CC2)C1c1cccc([N+](=O)[O-])c1 (stereo not shown) [PCM-0090281]
BTK inhibition (%) (BTK [1]; [4]): 34.2%

Nc1nc2[nH]cc(CCc3ccc(C(=O)N[C@@H](CCC(=O)O)C(=O)O)cc3)c2c(=O)[nH]1 [PCM-0090283]
BTK inhibition (%) (BTK [1]; [3]): 2.6%

Cc1c(O)c(=O)ccn1C [PCM-0090746]
BTK inhibition (%) (BTK [1]; [3]): -11.9%

COC1=C[C@@H]2[C@@H]3Cc4ccc(OC)c(O)c4[C@]2(CCN3C)CC1=O [PCM-0090951]
BTK inhibition (%) (BTK [1]; 10 µM, inhibitor): 14.8%

O=c1ccc2cc(O[C@@H]3O[C@H](CO)[C@@H](O)[C@H](O)[C@H]3O)c(O)cc2o1 [PCM-0091361]
BTK inhibition (%) (BTK [1]; [4]): 0%

c1cc2c(cc1[C@H]1OC[C@H]3[C@@H]1CO[C@@H]3c1ccc3c(c1)OCO3)OCO2 [PCM-0094427]
BTK inhibition (%) (BTK [1]; [4]): -24.1%

N#C[C@H](O[C@@H]1O[C@H](CO[C@@H]2O[C@H](CO)[C@@H](O)[C@H](O)[C@H]2O)[C@@H](O)[C@H](O)[C@H]1O)c1ccccc1 [PCM-0094813]
BTK inhibition (%) (BTK [1]; 10 µM; inhibitor): -12.5%

C[C@H](O)[C@H](O)[C@@H](O)[C@@H](O)C=O [PCM-0094862]
BTK inhibition (%) (BTK [1]; [3]): -7.8%

CC[C@@]1(O)C(=O)OCc2c1cc1n(c2=O)Cc2cc3cc(O)ccc3nc2-1 [PCM-0094873]
BTK inhibition (%) (BTK [1]; [4]): -14%

C=C1[C@H](CO)[C@@H](O)C[C@@H]1n1cnc2c(=O)[nH]c(N)nc21 [PCM-0095007]
BTK inhibition (%) (BTK [1]; [3]): -4.7%

C[N+]1(C)[C@@H]2CC(OC(=O)[C@H](CO)c3ccccc3)C[C@H]1[C@@H]1O[C@@H]12 (stereo partly shown) [PCM-0095246]
BTK inhibition (%) (BTK [1]; [4]): 10.9%

C[N+]1(C)[C@@H]2CC(OC(=O)C(O)(c3cccs3)c3cccs3)C[C@H]1[C@@H]1O[C@@H]12 (stereo partly shown) [PCM-0095323]
BTK inhibition (%) (BTK [1]; [4]): -5.4%

O=C(OC1C[C@H]2CC[C@@H](C1)[N+]21CCCC1)C(O)(c1ccccc1)c1ccccc1 (stereo partly shown) [PCM-0095326]
BTK inhibition (%) (BTK [1]; [4]): 7%

CN[C@H]1C[C@@H](N)[C@H](O)[C@@H](O[C@@H]2O[C@H](CO)[C@H](O)[C@@H]3OC4(O[C@H]23)O[C@H]([C@@H](N)CO)[C@H](O)[C@H](O)[C@H]4O)[C@@H]1O (stereo partly shown) [PCM-0095389]
BTK inhibition (%) (BTK [1]; [4]): 0%

Cc1ccccc1C(=O)Nc1ccc(C(=O)N2CCCC(N(C)C)c3ccccc32)cc1 (stereo not shown) [PCM-0095419]
BTK inhibition (%) (BTK [1]; [3]): -13.6%

N[C@@H](CO)C(=O)O [PCM-0216618]
inhibition at 10 µM (BTK [2]; [5]): 4.3%

O=C(O)c1ccc2c(c1)C(=O)c1ccccc1C2=O [PCM-0216619]
inhibition at 10 µM (BTK [2]; [5]): 9.3%

CC(=O)OC/C=C(/C)CCC=C(C)C [PCM-0216620]
inhibition at 10 µM (BTK [2]; [5]): 1.5%

CC(=O)c1ccccc1O [PCM-0216621]
inhibition at 10 µM (BTK [2]; [5]): 0.8%

CC(=O)CCc1ccccc1 [PCM-0216622]
inhibition at 10 µM (BTK [2]; [5]): -6.9%

C=CCc1ccc(OC(C)=O)c(OC)c1 [PCM-0216623]
inhibition at 10 µM (BTK [2]; [5]): 8.5%

O=C1CCc2ccccc2O1 [PCM-0216624]
inhibition at 10 µM (BTK [2]; [5]): -9.3%

Cc1ccc(C=O)o1 [PCM-0216625]
inhibition at 10 µM (BTK [2]; [5]): -5.4%

COc1ccccc1OCCN [PCM-0216626]
inhibition at 10 µM (BTK [2]; [5]): -11.6%

Cc1cc(=O)oc2c([N+](=O)[O-])c(O)ccc12 [PCM-0216627]
inhibition at 10 µM (BTK [2]; [5]): 13.1%

C=C(C)[C@H]1CC=C(C)CC1 [PCM-0216628]
inhibition at 10 µM (BTK [2]; [5]): 5.4%

CCCCCCCCOC(=O)c1cc(O)c(O)c(O)c1 [PCM-0216629]
inhibition at 10 µM (BTK [2]; [5]): 3.9%

CCCCCCCCCCCCCCCC(=O)OCC [PCM-0216630]
inhibition at 10 µM (BTK [2]; [5]): -12.4%

Cc1c[nH]c(=O)[nH]c1=O [PCM-0216631]
inhibition at 10 µM (BTK [2]; [5]): 14.7%

CCCCCCCCCCCCCCCC(=O)OC [PCM-0216632]
inhibition at 10 µM (BTK [2]; [5]): 25.5%

CCCCCCCCCC(C)O (stereo not shown) [PCM-0216633]
inhibition at 10 µM (BTK [2]; [5]): -30.1%

CCC(=O)NC[C@@H]1C[C@H]1c1cccc2c1CCO2 [PCM-0216634]
inhibition at 10 µM (BTK [2]; [5]): 3.9%

COc1ccc2c(c1)c(CC(=O)O)c(C)n2C(=O)c1ccc(Cl)cc1 [PCM-0216635]
inhibition at 10 µM (BTK [2]; [5]): 10.8%

C/C(=C(/CCOC(=O)C(C)C)SS/C(CCOC(=O)C(C)C)=C(\C)N(C=O)Cc1cnc(C)nc1N)N(C=O)Cc1cnc(C)nc1N [PCM-0216636]
inhibition at 10 µM (BTK [2]; [5]): -16.2%

O=C(O)c1cc(C(=O)O)c2c(n1)C(=O)C(=O)c1cc(C(=O)O)[nH]c1-2 [PCM-0216638]
inhibition at 10 µM (BTK [2]; [5]): -0.8%

CCOC(=O)[C@H](CCc1ccccc1)N[C@@H](C)C(=O)N(CC(=O)O)C1Cc2ccccc2C1 [PCM-0216640]
inhibition at 10 µM (BTK [2]; [5]): -10%

COC(=O)N[C@H](C(=O)N1CCC[C@H]1c1ncc(-c2ccc3c(c2)O[C@@H](c2ccccc2)n2c-3cc3cc(-c4cnc([C@@H]5CCCN5C(=O)[C@@H](NC(=O)OC)C(C)C)[nH]4)ccc32)[nH]1)C(C)C [PCM-0216642]
inhibition at 10 µM (BTK [2]; [5]): 52.5%

C[C@@H](O)[C@H]1C(=O)N2C(C(=O)O)=C(S[C@@H]3CN[C@H](C(=O)Nc4cccc(C(=O)O)c4)C3)[C@H](C)[C@H]12 [PCM-0216643]
inhibition at 10 µM (BTK [2]; [5]): 0.8%

C/C(=C\CNc1ncnc2c1ncn2[C@@H]1O[C@H](CO)[C@@H](O)[C@H]1O)CO [PCM-0216644]
inhibition at 10 µM (BTK [2]; [5]): 0.8%

CC(C)(Sc1ccncc1-c1ccc(C#N)c2ccccc12)C(=O)O [PCM-0216646]
inhibition at 10 µM (BTK [2]; [5]): -27.8%

C[C@@H](OC[C@@]1(c2ccccc2)CC[C@]2(CCC(=O)N2)CN1)c1cc(C(F)(F)F)cc(C(F)(F)F)c1 [PCM-0216647]
inhibition at 10 µM (BTK [2]; [5]): -48.6%

CNC(=O)c1c(C)oc2cc(Oc3ncnc4cc(OC)c(OC)cc34)ccc12 [PCM-0216648]
inhibition at 10 µM (BTK [2]; [5]): 1.4%

C=C1CC[C@H]2[C@@H](/C=C(/C)C(=O)[C@@]3(O)C[C@H](C)[C@H](O)[C@@H]3[C@H]1O)C2(C)C [PCM-0216650]
inhibition at 10 µM (BTK [2]; read-out: BTK inhibition (%)): -9.3%

Cc1c[nH]c(/C=C2\C(=O)Nc3ccccc32)c1CCC(=O)O [PCM-0216652]
inhibition at 10 µM (BTK [2]; [5]): 83.4%

COc1ccc2[nH]cc(/C=C3\C(=O)Nc4ccc(NC(=O)CCN5CCCCC5)cc43)c2c1 [PCM-0216653]
inhibition at 10 µM (BTK [2]; [5]): 51.7%

C=C1[C@H](O)C[C@H]2[C@@H](/C=C(\C)C(=O)[C@@]3(O)C[C@H](C)[C@H](O)[C@@H]3[C@H]1O)C2(C)C [PCM-0216654]
inhibition at 10 µM (BTK [2]; [5]): -8.6%

Ac-PHSCN-NH2 [PCM-0215851]
inhibition at 10 µM (BTK [2]; [5]): -5.1%

RKDVY [PCM-0214887]
inhibition at 10 µM (BTK [2]; [5]): 4.8%
